Experiments:
[1] = test system: NefGFP release from HEK293 cells; assay: Nef-GFP co-transfection secretion assay, GFP fluorescence of supernatant; format: cell-based; details: HEK293, 0.5 μg Nef-GFP + 0.5 μg peptide, Chariot, 48 h; relative to NefGFP+sM1 (100%)
Description: Therefore, a set of co-transfection experiments were performed. HEK293 cells were co-transfected with 0.5 μg of pQBI-HIV Nef-GFP (expresses wild type Nef protein) and either 0.5 μg of HIV-1 Nef SMRwt or SMRmut peptide or sM1 peptide (a totally random control peptide, ALAETCQNAWA (SEQ ID NO: 7)) with Chariot. Briefly, the wild-type Nef-GFP clone and the SMR peptides were complexed with Chariot reagent for 30 minutes at RT. The DNA/peptide/Chariot complex was added to HEK293 cells in serum-free media, and the cells were plated. Following incubation for 2 hours at 37° C., media with serum was added to the dish, and the cells were incubated at 37° C. for 48 h. The media was then collected and assayed for secretion using a spectrofluorimeter. The conditioned supernatants from these cultures were assayed for GFP fluorescence by plate reader.

pNL4-3 in Jurkat cells = assay: p24 assay of virion production after pNL4-3 co-transfection; format: cell-based, HIV; details: for amount of virus production (in words, Table I): 96 hours, pNL4-3 co-transfection; for p24 / Effect (a/b): Jurkat; for p24: co-transfected with pNL4-3; for Effect (a/b): p24 of sample / p24 of pNL4-3 + sM1
Description: I. Jurkat cells were co-transfected as shown below: (transfection efficiency 30-40% by Chariot Kit):
pNL4-3 is a clone containing the viral genome. Transfection into cells allows expression of the viral genome and ultimately virion formation and release. The amount of virion production in the extracellular supernatant is measured through p24 protein (viral protein). Samples were collected at 48 hours and 96 hours post-infection.
At 48 hr postinfection two plates in each group were removed and analyzed by: • a. p24 assay • b. Nef assay • c. Infectivity assay • At 96 hr postinfection the other two plates in each group were removed and analyzed by: • a. p24 assay • b. Nef assay • c. Infectivity assay

R7 in Jurkat cells = assay: p24 ELISA of supernatant after R7 co-transfection; format: cell-based, HIV
Description: Jurkat cells, HEK293 cells, THP-1 monocytes and U937 monocytes were co-transfected with either R7 […] Nef SMR wt (antagonist) or with R7+Nef SMR mt (nonfunctional antagonist) by Chariot™ Kit. The transfection efficiency was 30-40%.
R7 is a clone containing the viral genome. Transfection into cells allows expression of the viral genome and ultimately virion formation and release. The amount of virion production in the extracellular supernatant is measured through p24 protein (viral protein).
(§1) At 2 hours, 3 days, 6 days, 9 days, 13 days, 15 days, 17 days, 20 days, 23 days, 27 days and 36 days post-transfection, 0.5 ml supernatant were collected from each plate, mixed with 0.5 ml fresh media and analyzed by p24 ELISA assay. 1.5 ml of supernatant were collected from each plate and spun in a TLA100 rotor at 400,000×g for 1 hour to create the pellets. The pellets were used for Western blot analysis with p24 mAb and Nef mAb.

[2] = test system: R7 in Jurkat cells, HEK293 cells, THP-1 monocytes, U937 monocytes; assay: Western blot of Nef and p24 in supernatant pellets; format: cell-based, HIV; details: R7 co-transfection, HEK293, THP-1, U937, 400,000×g supernatant pellets
Description: as §1
No effect is observed for the negative control peptide (NefSMRmut). […] This is possibly due to antagonism of trafficking of viral component(s) to the cytoplasmic membrane. Ultimately this would (i) shutdown the HIV infection and (ii) block progression to AIDS.

R7; Magi/CXCR4 cells = assay: Magi assay of viral infectivity, supernatants of Jurkat cells; format: cell-based, HIV; details: for blue staining (productively infected) Magi/CXCR4 cells: 48 hour conditioned supernatant of Jurkat cells transfected with R7 and peptide, X-Gal
Description: Magi/CXCR4 cells were exposed to 48 hour conditioned supernatants from Jurkat cells, HEK293 cells, THP-1 monocytes, or U937 monocytes transfected with either R7 viral DNA/SMRwt peptide or R7 viral DNA/SMRmt peptide. These cells were then fixed and stained with X-Gal. […] Cells productively infected with R7 are easily visualized under light microscopy by their blue nuclear staining. Magnification ×20. […] This is indicative of virus in the conditioned supernatant from the R7/negative control peptide treated cells and no virus in conditioned supernatant from the R7/antagonist treated cells.
These Magi cultures were quantitated for blue staining cells. The data was plotted as a function of time post-transfection. […] This is possibly due to antagonism of trafficking of viral component(s) to the cytoplasmic membrane. Ultimately this would shutdown the HIV infection and block progression to AIDS.

[3] = test system: HIV-1 Gag-GFP secretion, HEK293; assay: HIV-1 Gag-GFP induced secretion, fluorescent plate reader assay; format: cell-based; details: for SMRmt/SMRwt ratio of secretion: HEK293, HIV-1 Gag-GFP; for Increase in Secretion (relative to untransfected cells), exp condition/UT: HEK293, HIV-1 Gag-GFP (sM1 column head prints GFP/sM1), 0.5 μg peptide, 48 hours
Description: (§2) Cells were co-transfected with 0.5 μg of pQBI-HIV Gag-GFP (expresses wild type Gag protein) and either 0.5 μg of HIV-1 Nef SMRwt, SMRmut peptide, sM1 peptide or untransfected controls with Chariot for 48 hours. The conditioned supernatants from these cultures were assayed for GFP fluorescence by plate reader.

[4] = test system: HIV-1 Gag-GFP secretion, Jurkat; assay: as above; format: cell-based; details: for SMRmt/SMRwt ratio of secretion: HIV-1 Gag-GFP; for Increase in Secretion (relative to untransfected cells), exp condition/UT: HIV-1 Gag-GFP (sM1 column head prints GFP/sM1), 0.5 μg peptide, 48 hours
Description: as §2

[5] = test system: HIV-1 Gag-GFP secretion, THP-1; assay: as above; format: cell-based; details: for SMRmt/SMRwt ratio of secretion: THP-1, HIV-1 Gag-GFP; for Increase in Secretion (relative to untransfected cells), exp condition/UT: THP-1, HIV-1 Gag-GFP (sM1 column head prints GFP/sM1), 0.5 μg peptide, 48 hours
Description: as §2

[6] = test system: HIV-1 Gag-GFP secretion, U937; assay: as above; format: cell-based; details: for SMRmt/SMRwt ratio of secretion: U937, HIV-1 Gag-GFP; for Increase in Secretion (relative to untransfected cells), exp condition/UT: U937, HIV-1 Gag-GFP (sM1 column head prints GFP/sM1), 0.5 μg peptide, 48 hours
Description: as §2

[7] = test system: HIV-1 Nef-GFP secretion, cell line H; assay: HIV-1 Nef-GFP induced secretion, fluorescent plate reader assay; format: cell-based; details: for SMRmt/SMRwt ratio of secretion: HIV-1 Nef-GFP; for Increase in Secretion (relative to untransfected cells), exp condition/UT: HIV-1 Nef-GFP (sM1 column head prints GFP/sM1)
[8] = test system: Gag-GFP + HIV-1wtNef-RFP secretion, Jurkat; assay: Gag-GFP secretion in presence of wtNef-RFP, fluorescent plate reader assay; format: cell-based; details: for Secretion relative to untransfected cells: Jurkat, Gag-GFP + HIV-1wtNef-RFP + peptide, 48 hours
Description: (§3) Cells were transfected with the pQBI-HIV Gag-GFP construct, wtNef-RFP, and either the antagonist (SMRwt peptide), the negative control SMRmt peptide, or a random peptide sM1 with Chariot for 48 hours. The conditioned supernatants from these cultures were assayed for GFP fluorescence by plate reader.

[9] = test system: Gag-GFP + HIV-1wtNef-RFP secretion, THP-1 Monocyte; assay: as above; format: cell-based; details: Gag-GFP + HIV-1wtNef-RFP + peptide, 48 hours
Description: as §3

Substance: H2N-AGFPVAAAGFPVDYKDDDDK-OH (H-AGFPVAAAGFPVDYKDDDDK-OH) [SMRmt]
- release of NefGFP into the extracellular supernatant (GFP fluorescence) [1]: no effect
- amount of virus production (in words, Table I) (pNL4-3 in Jurkat cells): no effect
- p24 (pNL4-3 in Jurkat cells; 48 hr): 0 pg/mL
- Effect (a/b) (pNL4-3 in Jurkat cells; 48 hr): 1
- p24 (pNL4-3 in Jurkat cells; 96 hr): 15 pg/mL
- Effect (a/b) (pNL4-3 in Jurkat cells; 96 hr): 0.5
- time post transfection at which p24 concentration increased (R7 in Jurkat cells): 3 days
- amount of virus production (Western blot of p24 and Nef) [2]: No effect
- blue staining (productively infected) Magi/CXCR4 cells (R7; Magi/CXCR4 cells): many blue staining cells
- SMRmt/SMRwt ratio of secretion [3]: 1.08y
- Increase in Secretion (relative to untransfected cells), exp condition/UT [3]: 25.96x
- SMRmt/SMRwt ratio of secretion [4]: 1.22y
- Increase in Secretion (relative to untransfected cells), exp condition/UT [4]: 58.22x
- SMRmt/SMRwt ratio of secretion [5]: 1.08y
- Increase in Secretion (relative to untransfected cells), exp condition/UT [5]: 45.06x
- SMRmt/SMRwt ratio of secretion [6]: 1y
- Increase in Secretion (relative to untransfected cells), exp condition/UT [6]: 43.82x
- SMRmt/SMRwt ratio of secretion [7]: 24.8y
- Increase in Secretion (relative to untransfected cells), exp condition/UT [7]: 57.04x
- Secretion relative to untransfected cells ([8]; first line): 55.73x
- Secretion relative to untransfected cells ([8]; second line (not explained)): 43.51x
- Secretion relative to untransfected cells ([9]; first line): 49.27x
- Secretion relative to untransfected cells ([9]; second line (not explained)): 22.24x

Substance: H-VGFPVAAVGFPVDYKDDDDK-OH [SMRwt]
- release of NefGFP into the extracellular supernatant (GFP fluorescence) [1]: antagonizes the release of NefGFP into the extracellular supernatant
- amount of virus production (in words, Table I) (pNL4-3 in Jurkat cells): reduced drastically
- p24 (pNL4-3 in Jurkat cells; 48 hr): 0 pg/mL
- Effect (a/b) (pNL4-3 in Jurkat cells; 48 hr): 1
- p24 (pNL4-3 in Jurkat cells; 96 hr): 0 pg/mL
- Effect (a/b) (pNL4-3 in Jurkat cells; 96 hr): <0.033
- time post transfection at which p24 concentration increased (R7 in Jurkat cells): 13 days
- amount of virus production (Western blot of p24 and Nef) [2]: drastically reduced to zero or close to zero
- blue staining (productively infected) Magi/CXCR4 cells (R7; Magi/CXCR4 cells): drastically reduced numbers of blue staining cells
- numbers of infected Magi cells as a function of time post-transfection (R7; Magi/CXCR4 cells; supernatant from transfected Jurkat cells): significantly reduced
- SMRmt/SMRwt ratio of secretion [3]: 1y
- Increase in Secretion (relative to untransfected cells), exp condition/UT [3]: 24.22x
- Gag virus-like particle release (in words, Table II) ([4]; Gag-GFP alone, HEK293, THP-1, U937): no effect on Gag virus-like particle release
- SMRmt/SMRwt ratio of secretion [4]: 1y
- Increase in Secretion (relative to untransfected cells), exp condition/UT [4]: 47.46x
- SMRmt/SMRwt ratio of secretion [5]: 1y
- Increase in Secretion (relative to untransfected cells), exp condition/UT [5]: 41.3x
- SMRmt/SMRwt ratio of secretion [6]: 1y
- Increase in Secretion (relative to untransfected cells), exp condition/UT [6]: 43.95x
- SMRmt/SMRwt ratio of secretion [7]: 1.0y
- Increase in Secretion (relative to untransfected cells), exp condition/UT [7]: 2.3x
- release of Gag virus-like particles in the presence of wtNef-RFP (in words, Table III) ([8]; Jurkat and THP-1, Gag-GFP + wtNef-RFP): blocks release of Gag virus-like particles
- Secretion relative to untransfected cells ([8]; first line): 1.3x
- Secretion relative to untransfected cells ([8]; second line (not explained)): 1.16x
- Secretion relative to untransfected cells ([9]; first line): 0.95x
- Secretion relative to untransfected cells ([9]; second line (not explained)): 0.91x

From patent publication US8431530B2, “Compositions and methods for treating aids or cancer by inhibiting the secretion of microparticles” (priority 2009, dated 2013)
